Test results: the kinase profiling compilation of Christmann-Franck et al. (2016)
Each block holds one compound with its values, some of them ahead of it.

Assays:
Test in all cases: KINOMEscan competition binding
Details in all cases: compound 10.0 µM
[1] = system: ABL1 (human), P00519 [Y253F]
[2] = system: EGFR (human), P00533 [747-751 del / S ins]
[3] = system: EGFR (human), P00533 [752-759 del]
[4] = system: EGFR (human), P00533 [T790M/L858R]
[5] = system: EGFR (human), P00533 [T790M]
[6] = system: FLT3 (human), P36888 [D835H]
[7] = system: FLT3 (human), P36888 [R834Q]
[8] = system: KIT (human), P10721 [L576P]
[9] = system: KIT (human), P10721 [V559D/V654A]
[10] = system: MET (human), P08581 [Y1235D]
[11] = system: RET (human), P07949 [M918T]
[12] = system: RET (human), P07949 [V804M]
RET (human), P07949 [V804M], sequence (P07949 whole entry V804M, looked up): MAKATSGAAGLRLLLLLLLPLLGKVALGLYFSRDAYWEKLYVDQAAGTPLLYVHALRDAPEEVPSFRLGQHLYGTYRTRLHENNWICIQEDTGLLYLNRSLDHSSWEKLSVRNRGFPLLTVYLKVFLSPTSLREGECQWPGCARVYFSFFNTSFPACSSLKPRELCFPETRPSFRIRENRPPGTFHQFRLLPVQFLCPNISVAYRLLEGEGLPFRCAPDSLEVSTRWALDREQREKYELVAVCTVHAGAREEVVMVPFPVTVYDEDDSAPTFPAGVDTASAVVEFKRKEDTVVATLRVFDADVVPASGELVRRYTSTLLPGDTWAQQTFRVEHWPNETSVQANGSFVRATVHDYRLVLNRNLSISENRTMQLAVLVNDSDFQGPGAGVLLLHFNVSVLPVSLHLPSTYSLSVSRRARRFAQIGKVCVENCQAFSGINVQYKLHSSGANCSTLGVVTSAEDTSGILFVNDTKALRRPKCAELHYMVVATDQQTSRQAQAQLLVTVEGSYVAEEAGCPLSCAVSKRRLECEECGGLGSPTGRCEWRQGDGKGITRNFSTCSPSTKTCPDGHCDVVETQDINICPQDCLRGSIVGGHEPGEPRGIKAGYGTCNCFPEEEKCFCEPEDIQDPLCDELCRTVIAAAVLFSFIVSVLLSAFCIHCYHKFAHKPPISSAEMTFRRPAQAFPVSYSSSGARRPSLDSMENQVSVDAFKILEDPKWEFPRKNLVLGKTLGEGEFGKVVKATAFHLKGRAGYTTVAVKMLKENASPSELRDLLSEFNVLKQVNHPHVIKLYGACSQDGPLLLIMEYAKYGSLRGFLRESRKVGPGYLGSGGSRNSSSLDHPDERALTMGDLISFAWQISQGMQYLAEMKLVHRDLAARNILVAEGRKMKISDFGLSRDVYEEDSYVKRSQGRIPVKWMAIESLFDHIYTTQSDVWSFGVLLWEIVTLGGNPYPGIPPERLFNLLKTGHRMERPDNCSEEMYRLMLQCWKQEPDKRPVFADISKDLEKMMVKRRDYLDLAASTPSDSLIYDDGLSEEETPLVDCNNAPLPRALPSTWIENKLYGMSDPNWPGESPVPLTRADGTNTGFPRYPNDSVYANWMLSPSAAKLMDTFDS

RET (human), P07949 [M918T], sequence (P07949 whole entry M918T, looked up): as the sequence (P07949 whole entry V804M, looked up) above, with M804V, M918T counted along it
KIT (human), P10721 [L576P], sequence (P10721 whole entry L576P, looked up): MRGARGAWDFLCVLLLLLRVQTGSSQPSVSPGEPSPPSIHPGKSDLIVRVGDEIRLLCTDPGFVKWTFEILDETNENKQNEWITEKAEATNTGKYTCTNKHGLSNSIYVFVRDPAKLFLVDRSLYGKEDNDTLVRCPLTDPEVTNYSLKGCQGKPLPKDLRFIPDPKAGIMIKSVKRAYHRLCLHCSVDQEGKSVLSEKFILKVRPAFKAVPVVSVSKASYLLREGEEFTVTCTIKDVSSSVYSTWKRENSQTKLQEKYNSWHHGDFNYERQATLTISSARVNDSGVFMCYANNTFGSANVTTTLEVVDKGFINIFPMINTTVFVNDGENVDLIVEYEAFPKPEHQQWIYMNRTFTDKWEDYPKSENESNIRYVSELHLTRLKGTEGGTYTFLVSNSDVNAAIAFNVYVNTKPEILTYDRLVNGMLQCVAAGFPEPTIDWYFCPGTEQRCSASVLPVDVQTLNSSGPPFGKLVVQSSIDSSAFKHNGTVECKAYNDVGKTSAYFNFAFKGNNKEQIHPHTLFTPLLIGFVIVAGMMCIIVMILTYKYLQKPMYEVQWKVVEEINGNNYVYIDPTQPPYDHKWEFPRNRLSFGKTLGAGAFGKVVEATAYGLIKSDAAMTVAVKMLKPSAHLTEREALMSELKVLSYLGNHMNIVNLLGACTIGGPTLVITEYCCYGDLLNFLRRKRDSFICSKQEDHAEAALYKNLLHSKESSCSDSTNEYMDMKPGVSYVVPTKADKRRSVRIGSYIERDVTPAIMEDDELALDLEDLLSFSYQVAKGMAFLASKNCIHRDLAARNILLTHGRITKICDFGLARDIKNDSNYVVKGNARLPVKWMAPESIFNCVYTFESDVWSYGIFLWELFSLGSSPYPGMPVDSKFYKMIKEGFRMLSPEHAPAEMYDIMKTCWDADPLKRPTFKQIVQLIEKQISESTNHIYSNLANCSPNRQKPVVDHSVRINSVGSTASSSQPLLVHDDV
KIT (human), P10721 [V559D/V654A], sequence (P10721 whole entry V559D/V654A, looked up): as the sequence (P10721 whole entry L576P, looked up) above, with V559D, P576L, V654A counted along it

Compound: CNC(=O)Nc1ccc(-c2nc(N3CC4CCC(C3)O4)c3cnn(C4CCC5(CC4)OCCO5)c3n2)cc1
- kinase still bound, per cent of control [1]: 99%
- kinase still bound, per cent of control [2]: 50%
- kinase still bound, per cent of control [3]: 55%
- kinase still bound, per cent of control [4]: 100%
- kinase still bound, per cent of control [5]: 68%
- kinase still bound, per cent of control [6]: 82%
- kinase still bound, per cent of control [7]: 79%
- kinase still bound, per cent of control [8]: 85%
- kinase still bound, per cent of control [9]: 100%
- kinase still bound, per cent of control [10]: 24%
- kinase still bound, per cent of control [11]: 73%
- kinase still bound, per cent of control [12]: 100%

Compound: COc1cc2c(Nc3ccc(NC(=O)c4ccccc4)cc3)ncnc2cc1OCCCN1CCOCC1
- kinase still bound, per cent of control [1]: 35%
- kinase still bound, per cent of control [2]: 26%
- kinase still bound, per cent of control [3]: 14%
- kinase still bound, per cent of control [4]: 85%
- kinase still bound, per cent of control [5]: 42%
- kinase still bound, per cent of control [6]: 13%
- kinase still bound, per cent of control [7]: 34%
- kinase still bound, per cent of control [8]: 0%
- kinase still bound, per cent of control [9]: 5.8%
- kinase still bound, per cent of control [11]: 0.1%
- kinase still bound, per cent of control [12]: 12%

Compound: O=C1Nc2ccc(I)cc2/C1=C/c1cc(Br)c(O)c(Br)c1
- kinase still bound, per cent of control [1]: 81%
- kinase still bound, per cent of control [2]: 50%
- kinase still bound, per cent of control [3]: 35%
- kinase still bound, per cent of control [4]: 98%
- kinase still bound, per cent of control [5]: 65%
- kinase still bound, per cent of control [6]: 40%
- kinase still bound, per cent of control [7]: 100%
- kinase still bound, per cent of control [8]: 6.6%
- kinase still bound, per cent of control [9]: 5.7%
- kinase still bound, per cent of control [10]: 72%
- kinase still bound, per cent of control [11]: 100%
- kinase still bound, per cent of control [12]: 100%

Compound: CCN1CCN(Cc2ccc(NC(=O)c3ccc(C)c(/C=C/c4cnc5[nH]ccc5c4OC)c3)cc2C(F)(F)F)CC1
- kinase still bound, per cent of control [1]: 0.25%
- kinase still bound, per cent of control [2]: 0%
- kinase still bound, per cent of control [3]: 0%
- kinase still bound, per cent of control [4]: 77%
- kinase still bound, per cent of control [5]: 9.9%
- kinase still bound, per cent of control [6]: 0.15%
- kinase still bound, per cent of control [7]: 50%
- kinase still bound, per cent of control [8]: 0%
- kinase still bound, per cent of control [9]: 2.6%
- kinase still bound, per cent of control [10]: 79%
- kinase still bound, per cent of control [11]: 0%
- kinase still bound, per cent of control [12]: 0%

Compound: CCN1CCN(Cc2ccc(Nc3ncc4c(n3)N(C)c3ccccc3C(=O)N4C)cc2C(F)(F)F)CC1
- kinase still bound, per cent of control [1]: 0.1%
- kinase still bound, per cent of control [2]: 95%
- kinase still bound, per cent of control [3]: 98%
- kinase still bound, per cent of control [4]: 90%
- kinase still bound, per cent of control [5]: 100%
- kinase still bound, per cent of control [6]: 8.8%
- kinase still bound, per cent of control [7]: 69%
- kinase still bound, per cent of control [8]: 46%
- kinase still bound, per cent of control [9]: 100%
- kinase still bound, per cent of control [10]: 86%
- kinase still bound, per cent of control [11]: 0.6%
- kinase still bound, per cent of control [12]: 1.2%

Compound: CC(=O)c1c(C)c2cnc(Nc3ccc(N4CCNCC4)cn3)nc2n(C2CCCC2)c1=O
- kinase still bound, per cent of control [1]: 59%
- kinase still bound, per cent of control [3]: 87%
- kinase still bound, per cent of control [4]: 60%
- kinase still bound, per cent of control [5]: 39%
- kinase still bound, per cent of control [6]: 22%
- kinase still bound, per cent of control [7]: 61%
- kinase still bound, per cent of control [8]: 24%
- kinase still bound, per cent of control [10]: 58%
- kinase still bound, per cent of control [12]: 14%

Compound: CCN(CCO)CCCOc1ccc2c(Nc3cc(CC(=O)Nc4cccc(F)c4)[nH]n3)ncnc2c1
- kinase still bound, per cent of control [1]: 28%
- kinase still bound, per cent of control [6]: 4%
- kinase still bound, per cent of control [7]: 14%
- kinase still bound, per cent of control [8]: 0%
- kinase still bound, per cent of control [10]: 30%
- kinase still bound, per cent of control [11]: 0.2%
- kinase still bound, per cent of control [12]: 5.5%

Compound: Cc1ccc2nc(NCCN)c3ncc(C)n3c2c1
- kinase still bound, per cent of control [1]: 100%
- kinase still bound, per cent of control [2]: 100%
- kinase still bound, per cent of control [3]: 100%
- kinase still bound, per cent of control [4]: 100%
- kinase still bound, per cent of control [5]: 50%
- kinase still bound, per cent of control [6]: 100%
- kinase still bound, per cent of control [7]: 100%
- kinase still bound, per cent of control [9]: 100%
- kinase still bound, per cent of control [10]: 100%
- kinase still bound, per cent of control [11]: 100%
- kinase still bound, per cent of control [12]: 100%

Compound: CCCS(=O)(=O)Nc1ccc(F)c(C(=O)c2c[nH]c3ncc(-c4ccc(Cl)cc4)cc23)c1F
- kinase still bound, per cent of control [2]: 78%
- kinase still bound, per cent of control [3]: 71%
- kinase still bound, per cent of control [4]: 100%
- kinase still bound, per cent of control [7]: 100%
- kinase still bound, per cent of control [8]: 0%
- kinase still bound, per cent of control [9]: 26%
- kinase still bound, per cent of control [10]: 78%
- kinase still bound, per cent of control [11]: 28%
- kinase still bound, per cent of control [12]: 91%

Next, values leading:

- kinase still bound, per cent of control [2]: 51%
- kinase still bound, per cent of control [3]: 70%
- kinase still bound, per cent of control [4]: 100%
- kinase still bound, per cent of control [5]: 77%
- kinase still bound, per cent of control [6]: 87%
- kinase still bound, per cent of control [7]: 78%
- kinase still bound, per cent of control [8]: 75%
- kinase still bound, per cent of control [9]: 100%
- kinase still bound, per cent of control [10]: 100%
- kinase still bound, per cent of control [11]: 79%
- kinase still bound, per cent of control [12]: 100%
Compound: O=C(NOC[C@H](O)CO)c1ccc(F)c(F)c1Nc1ccc(I)cc1F

- kinase still bound, per cent of control [1]: 95%
- kinase still bound, per cent of control [6]: 84%
- kinase still bound, per cent of control [7]: 88%
- kinase still bound, per cent of control [8]: 79%
- kinase still bound, per cent of control [9]: 100%
- kinase still bound, per cent of control [10]: 71%
- kinase still bound, per cent of control [11]: 95%
- kinase still bound, per cent of control [12]: 92%
Compound: N#Cc1c(NC(=O)c2cccc3ccccc23)sc2c1CCCC2

- kinase still bound, per cent of control [1]: 100%
- kinase still bound, per cent of control [6]: 83%
- kinase still bound, per cent of control [7]: 68%
- kinase still bound, per cent of control [8]: 33%
- kinase still bound, per cent of control [9]: 100%
- kinase still bound, per cent of control [10]: 88%
- kinase still bound, per cent of control [11]: 100%
- kinase still bound, per cent of control [12]: 88%
Compound: N#C/C(=C1/Nc2ccccc2S1)c1ccnc(NCCc2cccnc2)n1

- kinase still bound, per cent of control [1]: 69%
- kinase still bound, per cent of control [2]: 100%
- kinase still bound, per cent of control [3]: 100%
- kinase still bound, per cent of control [4]: 78%
- kinase still bound, per cent of control [5]: 54%
- kinase still bound, per cent of control [6]: 10%
- kinase still bound, per cent of control [7]: 20%
- kinase still bound, per cent of control [8]: 54%
- kinase still bound, per cent of control [9]: 100%
- kinase still bound, per cent of control [10]: 98%
- kinase still bound, per cent of control [11]: 100%
- kinase still bound, per cent of control [12]: 100%
Compound: C[C@@H](Oc1cc(-n2cnc3ccc(CN4CCN(C)CC4)cc32)sc1C(N)=O)c1ccccc1C(F)(F)F

- kinase still bound, per cent of control [1]: 98%
- kinase still bound, per cent of control [2]: 91%
- kinase still bound, per cent of control [3]: 89%
- kinase still bound, per cent of control [4]: 100%
- kinase still bound, per cent of control [5]: 100%
- kinase still bound, per cent of control [6]: 99%
- kinase still bound, per cent of control [7]: 100%
- kinase still bound, per cent of control [8]: 100%
- kinase still bound, per cent of control [9]: 94%
- kinase still bound, per cent of control [10]: 100%
- kinase still bound, per cent of control [11]: 100%
- kinase still bound, per cent of control [12]: 100%
Compound: COc1cc(N2CCN(C)CC2)ccc1Nc1nc(N)c(C(=O)c2c(Cl)cccc2Cl)s1

- kinase still bound, per cent of control [1]: 60%
- kinase still bound, per cent of control [2]: 74%
- kinase still bound, per cent of control [3]: 72%
- kinase still bound, per cent of control [4]: 100%
- kinase still bound, per cent of control [5]: 100%
- kinase still bound, per cent of control [6]: 47%
- kinase still bound, per cent of control [7]: 67%
- kinase still bound, per cent of control [8]: 51%
- kinase still bound, per cent of control [9]: 90%
- kinase still bound, per cent of control [10]: 74%
- kinase still bound, per cent of control [11]: 71%
- kinase still bound, per cent of control [12]: 84%
Compound: O=C(NC1CC1)c1cccc(-c2ccc3c(NC(=O)C4CC4)n[nH]c3c2)c1

- kinase still bound, per cent of control [1]: 72%
- kinase still bound, per cent of control [2]: 81%
- kinase still bound, per cent of control [3]: 90%
- kinase still bound, per cent of control [4]: 87%
- kinase still bound, per cent of control [5]: 40%
- kinase still bound, per cent of control [6]: 76%
- kinase still bound, per cent of control [7]: 77%
- kinase still bound, per cent of control [8]: 93%
- kinase still bound, per cent of control [9]: 92%
- kinase still bound, per cent of control [10]: 65%
- kinase still bound, per cent of control [11]: 15%
- kinase still bound, per cent of control [12]: 43%
Compound: CC1=C(C(=O)Nc2cc3cn[nH]c3cc2F)C(c2ccc(C(F)(F)F)cc2)CC(=O)N1 (stereo not drawn)

- kinase still bound, per cent of control [6]: 94%
- kinase still bound, per cent of control [7]: 100%
- kinase still bound, per cent of control [10]: 86%
- kinase still bound, per cent of control [11]: 100%
- kinase still bound, per cent of control [12]: 91%
Compound: CCOc1cc2ncc(C#N)c(Nc3ccc(OCc4ccccn4)c(Cl)c3)c2cc1NC(=O)/C=C/CN(C)C

- kinase still bound, per cent of control [3]: 34%
- kinase still bound, per cent of control [5]: 50%
- kinase still bound, per cent of control [7]: 100%
- kinase still bound, per cent of control [8]: 60%
- kinase still bound, per cent of control [9]: 60%
- kinase still bound, per cent of control [10]: 51%
- kinase still bound, per cent of control [11]: 54%
- kinase still bound, per cent of control [12]: 89%
Compound: O=C(O)c1ccc(Nc2ncc3c(n2)-c2ccc(Cl)cc2C(c2c(F)cccc2F)=NC3)cc1
